Source: PMC3176802, “Structural Basis for Distinct Binding Properties of the Human Galectins to Thomsen-Friedenreich Antigen” (PLoS ONE, 2011)
“Also recorded” adds a separate entry of the source.

Columns and labels:
Format in all cases: binding
human galectin-1 (Gal-1) [1] = target: T1, human galectin-1 (Gal-1) (Homo sapiens, UniProt P09382); assay: SPR assay, Gal-1 over immobilized biotin labeled GM1; details: Gal-1, immobilized biotin labeled GM1 pentasaccharide, 298 K
T1 construct: made in house; host or cells: Escherichia coli BL21 (DE3)
T1 sequence (P09382 whole entry): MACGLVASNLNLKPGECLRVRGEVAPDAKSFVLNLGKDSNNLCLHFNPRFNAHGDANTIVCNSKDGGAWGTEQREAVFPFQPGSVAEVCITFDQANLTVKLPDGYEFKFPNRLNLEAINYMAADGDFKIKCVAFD
Experimental: (§1) Biotin labeled GM1 pentasaccharide (from CFG) was dissolved into PBS buffer and connected covalently onto a streptavidin (SA) chip as the immobilized phase. […] Galectins in the sample buffer (20 mM PBS, pH7.5, 0.005% Tween 20) were as the flowing phase. Analytes with volume of 30 µl at various concentrations ordered from low to high were programmed to inject with a 30 µl/min flow rate under different sensorgrams. In order to correct for instrumental and concentration effects, a blank flow channel was used as reference. Specific binding analyses were identified by subtraction of the control channel. The kinetic analyses of molecular interactions were calculated according to the steady state affinity model by BIAcore T100 Evaluation software.

[2] = target: T2, human galectin-3 carbohydrate recognition domain (Gal-3 CRD) (Homo sapiens, UniProt P17931); assay: ITC assay, ligand titrating native Gal-3 CRD; details: 298 K
T2 construct: The molecule used in this study is a truncated CRD domain of Gal-3; made in house; host or cells: Escherichia coli BL21 (DE3)
T2 sequence (P17931 118-248 limits assumed): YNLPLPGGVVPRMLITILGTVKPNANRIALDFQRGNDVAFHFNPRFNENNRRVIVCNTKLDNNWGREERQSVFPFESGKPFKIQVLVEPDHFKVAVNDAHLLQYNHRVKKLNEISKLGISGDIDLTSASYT
Experimental: (§2) The delayed time between injections is 180 s. For every ligands, at least three titrations were done. The dissociation constants (Kd) were calculated using the Origin Program and the experimental data were fitted to a one-set-of-sites model.

human galectin-1 (Gal-1) [3] = target: T1, human galectin-1 (Gal-1); assay: ITC assay, ligand titrating native Gal-1; details: Gal-1, 298 K
Experimental: as §2

Gal-1-g3-L4 mutant = target: T3, Gal-1-g3-L4 mutant (Homo sapiens, UniProt P09382, A56R/D55N/DEL52-52/G54N/H53E); assay: SPR assay, Gal-1-g3-L4 over immobilized biotin labeled GM1; details: mutant Gal-1-g3-L4, immobilized biotin labeled GM1 pentasaccharide, 298 K
T3 construct: made in house; host or cells: Escherichia coli BL21 (DE3)
T3 sequence (P09382 with tags, fused parts or gaps DEL52-52/H53E/G54N/D55N/A56R): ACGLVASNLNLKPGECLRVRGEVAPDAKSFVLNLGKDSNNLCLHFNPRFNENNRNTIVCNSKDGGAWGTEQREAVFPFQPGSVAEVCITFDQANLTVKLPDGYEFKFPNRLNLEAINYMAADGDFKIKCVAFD
Experimental: (§3) The mutants, Gal-1-g3-L4 and Gal-3-g1-L4, were designed by exchanging two loops, g1-L4 and g3-L4. These mutants were constructed using Quick Change Site Directed Mutagenesis method, and then the proteins were expressed and purified as above procedures.
as §1

[4] = target: T4, Gal-3-g1-L4 (Gal-3 CRD-165AHGDA169) mutant (Homo sapiens, UniProt P17931, E165H/INS164A/N166G/N167D/R168A); assay: ITC assay, ligand titrating mutant Gal-3-g1-L4; details: for N, stochiometry (ITC): stochiometry fixed with a value of 1
T4 construct: The molecule used in this study is a truncated CRD domain of Gal-3; made in house; host or cells: Escherichia coli BL21 (DE3)
T4 sequence (P17931 with tags, fused parts or gaps INS164A/E165H/N166G/N167D/R168A): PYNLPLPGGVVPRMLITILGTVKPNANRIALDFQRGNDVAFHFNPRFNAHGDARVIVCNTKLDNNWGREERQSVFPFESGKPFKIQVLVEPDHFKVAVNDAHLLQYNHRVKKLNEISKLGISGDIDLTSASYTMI
Experimental: as §3, §2

[5] = target: T5, human galectin-3 CRD (Gal-3 CRD) (Homo sapiens, UniProt P17931); assay: SPR assay, Gal-3 CRD over immobilized biotin labeled GM1; details: immobilized biotin labeled GM1 pentasaccharide, steady state affinity model, 298 K
T5 construct: The molecule used in this study is a truncated CRD domain of Gal-3; made in house; host or cells: Escherichia coli BL21 (DE3)
T5 sequence (P17931 118-248 limits assumed): as the sequence (P17931 118-248 limits assumed) above
Experimental: as §1

[6] = target: T6, Gal-1-g3-L4 (Gal-1-51ENNR54) mutant (Homo sapiens, UniProt P09382, A56R/D55N/DEL52-52/G54N/H53E); assay: ITC assay, ligand titrating mutant Gal-1-g3-L4; details: mutant Gal-1-g3-L4, 298 K; for N, stochiometry (ITC): stochiometry fixed with a value of 1
T6 construct: made in house; host or cells: Escherichia coli BL21 (DE3)
T6 sequence (P09382 with tags, fused parts or gaps DEL52-52/H53E/G54N/D55N/A56R): as the sequence (P09382 with tags, fused parts or gaps DEL52-52/H53E/G54N/D55N/A56R) above
Experimental: as §3, §2

Gal-3-g1-L4 mutant = target: T7, Gal-3-g1-L4 mutant (Homo sapiens, UniProt P17931, E165H/INS164A/N166G/N167D/R168A); assay: SPR assay, Gal-3-g1-L4 over immobilized biotin labeled GM1; details: mutant Gal-3-g1-L4, immobilized biotin labeled GM1 pentasaccharide, steady state affinity model, 298 K
T7 construct: The molecule used in this study is a truncated CRD domain of Gal-3; made in house; host or cells: Escherichia coli BL21 (DE3)
T7 sequence (P17931 with tags, fused parts or gaps INS164A/E165H/N166G/N167D/R168A): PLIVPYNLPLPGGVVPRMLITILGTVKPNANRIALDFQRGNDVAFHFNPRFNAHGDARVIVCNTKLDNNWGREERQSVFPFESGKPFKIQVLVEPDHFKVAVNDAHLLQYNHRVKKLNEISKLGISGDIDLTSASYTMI
Experimental: as §3, §1

Row | Compound | -ΔH (ITC) ([2]; Gal-3 CRD) | N, stochiometry (ITC) ([2]; Gal-3 CRD) | ΔS (ITC) ([2]; Gal-3 CRD) | Kd (ITC) (human galectin-1 (Gal-1) [3]) | -ΔH (ITC) ([4]; mutant Gal-3-g1-L4, 298 K) | Kd ([4]; mutant Gal-3-g1-L4, 298 K) | ΔS (ITC) ([4]; mutant Gal-3-g1-L4, 298 K) | N, stochiometry (ITC) ([4]; mutant Gal-3-g1-L4, 298 K) | -ΔH (ITC) [6] | Kd [6] | Kd (ITC) [6] | ΔS (ITC) [6] | N, stochiometry (ITC) [6] | further results
1 | CC(=O)N[C@H]1[C@H](O[C@@H]2[C@H](O[C@]3(C(=O)O)C[C@H](O)[C@@H](NC(C)=O)[C@H]([C@H](O)[C@H](O)CO)O3)[C@@H](O)[C@H](O[C@H]3[C@H](O)[C@@H](O)C(O)O[C@@H]3CO)O[C@@H]2CO)O[C@H](CO)[C@H](O)[C@@H]1O[C@@H]1O[C@H](CO)[C@H](O)[C@H](O)[C@H]1O (some centres unmarked) [GM1, Galβ1-3GalNAcβ1-4[NeuAcα2-3]Galβ1-4Glc] | 4.0 kcal/mol | 1.06 | 6.0 cal/mol/deg | can not recognize and interact; also recorded: does not bind; also recorded: No affinity | 3.2 kcal/mol | 415 µM | 4.7 cal/mol/deg | 1.00 | 10.3 kcal/mol | 568 µM | gains the TF-binding ability | −19.8 cal/mol/deg | 1.00 | Kd (SPR) (human galectin-1 (Gal-1) [1]): No affinity; Kd (SPR) (Gal-1-g3-L4 mutant): Low affinity; Kd [5]: 62 µM; Kd (Gal-3-g1-L4 mutant): 397 µM
2 | CC(=O)N[C@H]1[C@@H](Oc2ccc([N+](=O)[O-])cc2)O[C@H](CO)[C@H](O)[C@@H]1O[C@@H]1O[C@H](CO)[C@H](O)[C@H](O)[C@H]1O [TFN, TF p-nitrophenyl] | 4.6 kcal/mol | 1.21 | 3.8 cal/mol/deg | can not recognize; also recorded: does not bind; also recorded: No affinity | 3.9 kcal/mol | 543 µM | 1.9 cal/mol/deg | 1.00 | 1.5 kcal/mol | 719 µM | can bind and interact | 9.4 cal/mol/deg | 1.00 | affinity relative to native Gal-3 (ITC) ([2]; native Gal-3 CRD as reference): 100%; Kd (ITC) ([4]; mutant Gal-3-g1-L4, 298 K): very lower affinity; affinity relative to native Gal-3 (ITC) ([4]; mutant Gal-3-g1-L4 compared to native Gal-3, 298 K): 12%
3 | Galβ1-3GalNAcα1-O-Ser/Thr [TF antigen] | 1.9 kcal/mol | 1.04 | 13.5 cal/mol/deg |  |  |  |  |  |  |  |  |  |  | Kd ([2]; Gal-3 CRD): 47 µM; -ΔH (ITC) (human galectin-1 (Gal-1) [3]): 26.3 kcal/mol; Kd (human galectin-1 (Gal-1) [3]): 4000 µM; ΔS (ITC) (human galectin-1 (Gal-1) [3]): −77.2 cal/mol/deg; N, stochiometry (ITC) (human galectin-1 (Gal-1) [3]; stochiometry fixed with a value of 1): 1.00
